In patent US20100267561A1, “HERBICIDAL PYRIDAZINONE DERIVATIVES” (priority 2007, published 2010):

Tests used:
Format in all cases: in vivo
wild oat (Avena fatua) = experiment: Test C pre-/postemergence plant response
In short: (§1)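 Ratings ran from 0 (no effect) to 100 (complete control) and were made visually against untreated controls 15–25 days after treatment in a controlled growth environment. Application was preemergence and, for some chemicals, postemergence at the 1- to 4-leaf stage (2–18 cm). Formulation was a non-phytotoxic solvent mixture with surfactant.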

[1] = test system: blackgrass (Alopecurus myosuroides); experiment: Test C pre-/postemergence plant response
In short: as §1

[2] = test system: green foxtail (Setaria viridis); experiment: Test C pre-/postemergence plant response
In short: as §1

[3] = test system: winter barley (Hordeum vulgare); experiment: Test C pre-/postemergence plant response
In short: as §1

[4] = test system: spring wheat (Triticum aestivum); experiment: Test C pre-/postemergence plant response
In short: as §1

[5] = test system: Italian ryegrass (Lolium multiflorum); experiment: Test C pre-/postemergence plant response
In short: as §1

[6] = test system: wild mustard (Sinapis arvensis); experiment: Test C pre-/postemergence plant response
In short: as §1

[7] = test system: canarygrass (Phalaris minor); experiment: Test C pre-/postemergence plant response
In short: as §1

[8] = test system: pigweed (Amaranthus retroflexus); experiment: Test C pre-/postemergence plant response
In short: as §1

[9] = test system: windgrass (Apera spica-venti); experiment: Test C pre-/postemergence plant response
In short: as §1

[10] = test system: winter wheat (Triticum aestivum); experiment: Test C pre-/postemergence plant response
In short: as §1

[11] = test system: spring barley (Hordeum vulgare); experiment: Test C pre-/postemergence plant response
In short: as §1

[12] = test system: annual bluegrass (Poa annua); experiment: Test C pre-/postemergence plant response
In short: as §1

[13] = test system: downy bromegrass (Bromus tectorum); experiment: Test C pre-/postemergence plant response
In short: as §1

[14] = test system: winter barley (Hordeum vulgare); experiment: Test B postemergence plant response; settings: Postemergence
In short: (§2)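 Visual injury ratings on a 0–100 scale, where 100 means complete control, were made 13 to 15 days after postemergence treatment of greenhouse-grown plants at the 1- to 4-leaf stage.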

[15] = test system: canarygrass (Phalaris minor); experiment: Test B postemergence plant response; settings: Postemergence
In short: as §2

[16] = test system: windgrass (Apera spica-venti); experiment: Test B postemergence plant response; settings: Postemergence
In short: as §2

[17] = Postemergence, 8 g ai/ha, scale 0 to 100, 0 no effect, 100 complete control
[18] = Postemergence, 16 g ai/ha, scale 0 to 100, 0 no effect, 100 complete control
[19] = Postemergence, 31 g ai/ha, scale 0 to 100, 0 no effect, 100 complete control
[20] = Postemergence, 62 g ai/ha, scale 0 to 100, 0 no effect, 100 complete control
[21] = Preemergence, 8 g ai/ha, scale 0 to 100 (0 no effect, 100 complete control)
[22] = Preemergence, 16 g ai/ha, scale 0 to 100 (0 no effect, 100 complete control)
[23] = Preemergence, 31 g ai/ha, scale 0 to 100 (0 no effect, 100 complete control)
[24] = Preemergence, 62 g ai/ha, scale 0 to 100, 0 no effect, 100 complete control
[25] = 31 g ai/ha, scale 0 to 100, 0 no effect, 100 complete control

For `CCc1cc(-c2ccc(C(F)(F)F)cc2)nn1-c1c(O)cnn(C)c1=O` [Compound 11, 4-[5-ethyl-3-[4-(trifluoromethyl)phenyl]-1H-pyrazol-1-yl]-5-hydroxy-2-methyl-3(2H)-pyridazinone], the “Plant response rating, Oat, Wild” value (wild oat (Avena fatua); [17]) was 100, the “Plant response rating, Oat, Wild” value (wild oat (Avena fatua); [18]) was 100 and the “Plant response rating, Oat, Wild” value (wild oat (Avena fatua); [19]) was 100. The “Plant response rating, Oat, Wild” value (wild oat (Avena fatua); [20]) was 100, the “Plant response rating, Oat, Wild” value (wild oat (Avena fatua); [21]) was 98 and the “Plant response rating, Oat, Wild” value (wild oat (Avena fatua); [22]) was 98. The “Plant response rating, Oat, Wild” value (wild oat (Avena fatua); [23]) was 98, the “Plant response rating, Oat, Wild” value (wild oat (Avena fatua); [24]) was 100 and the “Plant response rating, Blackgrass” value [1, 17] was 100. For the same compound, the “Plant response rating, Blackgrass” value [1, 18] was 100, the “Plant response rating, Blackgrass” value [1, 19] was 100 and the “Plant response rating, Blackgrass” value [1, 20] was 100. The “Plant response rating, Blackgrass” value [1, 21] was 85, the “Plant response rating, Blackgrass” value [1, 22] was 90 and the “Plant response rating, Blackgrass” value [1, 23] was 90. For the same compound, the “Plant response rating, Blackgrass” value [1, 24] was 100, the “Plant response rating, Foxtail, Green” value [2, 17] was 95 and the “Plant response rating, Foxtail, Green” value [2, 18] was 98. For the same compound, the “Plant response rating, Foxtail, Green” value [2, 19] was 100, the “Plant response rating, Foxtail, Green” value [2, 20] was 100 and the “Plant response rating, Foxtail, Green” value [2, 21] was 100. The “Plant response rating, Foxtail, Green” value [2, 22] was 100, the “Plant response rating, Foxtail, Green” value [2, 23] was 100 and the “Plant response rating, Foxtail, Green” value [2, 24] was 100. For the same compound, the “Plant response rating, Barley, Winter” value [3, 17] was 60, the “Plant response rating, Barley, Winter” value [3, 18] was 70 and the “Plant response rating, Barley, Winter” value [3, 19] was 95. For the same compound, the “Plant response rating, Barley, Winter” value [3, 20] was 100, the “Plant response rating, Barley, Winter” value [3, 21] was 20 and the “Plant response rating, Barley, Winter” value [3, 22] was 40. For the same compound, the “Plant response rating, Barley, Winter” value [3, 23] was 75, the “Plant response rating, Barley, Winter” value [3, 24] was 95 and the “Plant response rating, Wheat, Spring” value [4, 17] was 65. For the same compound, the “Plant response rating, Wheat, Spring” value [4, 18] was 90, the “Plant response rating, Wheat, Spring” value [4, 19] was 98 and the “Plant response rating, Wheat, Spring” value [4, 20] was 98. For the same compound, the “Plant response rating, Wheat, Spring” value [4, 21] was 50, the “Plant response rating, Wheat, Spring” value [4, 22] was 60 and the “Plant response rating, Wheat, Spring” value [4, 23] was 75. For the same compound, the “Plant response rating, Wheat, Spring” value [4, 24] was 100, the “Plant response rating, Ryegrass, Italian” value [5, 17] was 98 and the “Plant response rating, Ryegrass, Italian” value [5, 18] was 98. The “Plant response rating, Ryegrass, Italian” value [5, 19] was 100, the “Plant response rating, Ryegrass, Italian” value [5, 20] was 100 and the “Plant response rating, Ryegrass, Italian” value [5, 21] was 85. For the same compound, the “Plant response rating, Ryegrass, Italian” value [5, 22] was 98, the “Plant response rating, Ryegrass, Italian” value [5, 23] was 100 and the “Plant response rating, Ryegrass, Italian” value [5, 24] was 100. The “Plant response rating, Mustard, Wild” value [6, 17] was 0, the “Plant response rating, Mustard, Wild” value [6, 18] was 25 and the “Plant response rating, Mustard, Wild” value [6, 19] was 25. The “Plant response rating, Mustard, Wild” value [6, 20] was 40, the “Plant response rating, Mustard, Wild” value [6, 21] was 0 and the “Plant response rating, Mustard, Wild” value [6, 22] was 0. For the same compound, the “Plant response rating, Mustard, Wild” value [6, 23] was 0, the “Plant response rating, Mustard, Wild” value [6, 24] was 0 and the “Plant response rating, Canarygrass” value [7, 17] was 65. For the same compound, the “Plant response rating, Canarygrass” value [7, 18] was 100, the “Plant response rating, Canarygrass” value [7, 19] was 100 and the “Plant response rating, Canarygrass” value [7, 20] was 100. For the same compound, the “Plant response rating, Canarygrass” value [7, 21] was 15, the “Plant response rating, Canarygrass” value [7, 22] was 75 and the “Plant response rating, Canarygrass” value [7, 23] was 98. For the same compound, the “Plant response rating, Canarygrass” value [7, 24] was 100, the “Plant response rating, Pigweed” value [8, 17] was 0 and the “Plant response rating, Pigweed” value [8, 18] was 10. For the same compound, the “Plant response rating, Pigweed” value [8, 19] was 10, the “Plant response rating, Pigweed” value [8, 20] was 20 and the “Plant response rating, Pigweed” value [8, 21] was 0. For the same compound, the “Plant response rating, Pigweed” value [8, 22] was 0, the “Plant response rating, Pigweed” value [8, 23] was 0 and the “Plant response rating, Pigweed” value [8, 24] was 15. The “Plant response rating, Windgrass” value [9, 17] was 95, the “Plant response rating, Windgrass” value [9, 18] was 95 and the “Plant response rating, Windgrass” value [9, 19] was 95. The “Plant response rating, Windgrass” value [9, 20] was 95, the “Plant response rating, Windgrass” value [9, 21] was 100 and the “Plant response rating, Windgrass” value [9, 22] was 100. The “Plant response rating, Windgrass” value [9, 23] was 100, the “Plant response rating, Windgrass” value [9, 24] was 100 and the “Plant response rating, Wheat, Winter” value [10, 17] was 90. For the same compound, the “Plant response rating, Wheat, Winter” value [10, 18] was 100, the “Plant response rating, Wheat, Winter” value [10, 19] was 100 and the “Plant response rating, Wheat, Winter” value [10, 20] was 100. For the same compound, the “Plant response rating, Wheat, Winter” value [10, 21] was 20, the “Plant response rating, Wheat, Winter” value [10, 22] was 40 and the “Plant response rating, Wheat, Winter” value [10, 23] was 100. The “Plant response rating, Wheat, Winter” value [10, 24] was 100, the “Plant response rating, Barley, Spring” value [11, 17] was 80 and the “Plant response rating, Barley, Spring” value [11, 18] was 95. The “Plant response rating, Barley, Spring” value [11, 19] was 95, the “Plant response rating, Barley, Spring” value [11, 20] was 98 and the “Plant response rating, Barley, Spring” value [11, 21] was 20. The “Plant response rating, Barley, Spring” value [11, 22] was 30, the “Plant response rating, Barley, Spring” value [11, 23] was 70 and the “Plant response rating, Barley, Spring” value [11, 24] was 100. The “Plant response rating, Bluegrass” value [12, 17] was 0, the “Plant response rating, Bluegrass” value [12, 18] was 15 and the “Plant response rating, Bluegrass” value [12, 19] was 15. The “Plant response rating, Bluegrass” value [12, 20] was 20, the “Plant response rating, Bluegrass” value [12, 21] was 0 and the “Plant response rating, Bluegrass” value [12, 22] was 20. The “Plant response rating, Bluegrass” value [12, 24] was 30, the “Plant response rating, Bromegrass, Downy” value [13, 17] was 50 and the “Plant response rating, Bromegrass, Downy” value [13, 18] was 80. For the same compound, the “Plant response rating, Bromegrass, Downy” value [13, 19] was 98, the “Plant response rating, Bromegrass, Downy” value [13, 20] was 98 and the “Plant response rating, Bromegrass, Downy” value [13, 21] was 35. For the same compound, the “Plant response rating, Bromegrass, Downy” value [13, 22] was 65, the “Plant response rating, Bromegrass, Downy” value [13, 23] was 70 and the “Plant response rating, Bromegrass, Downy” value [13, 24] was 100. The “Plant response rating, Barley” value ([14]; 16 g ai/ha, scale 0 to 100, 0 no effect, 100 complete control) was 90, the “Plant response rating, Barley” value [14, 25] was 95 and the “Plant response rating, Barley” value ([14]; 62 g ai/ha, scale 0 to 100) was 100. For the same compound, the “Plant response rating, Barley” value ([14]; 125 g ai/ha, scale 0 to 100) was 100, the “Plant response rating, Canarygrass” value ([15]; 16 g ai/ha, scale 0 to 100) was 80 and the “Plant response rating, Canarygrass” value [15, 25] was 100. The “Plant response rating, Canarygrass” value ([15]; 62 g ai/ha, scale 0 to 100) was 100, the “Plant response rating, Canarygrass” value ([15]; 125 g ai/ha, scale 0 to 100) was 100 and the “Plant response rating, Windgrass” value ([16]; 16 g ai/ha, scale 0 to 100) was 100. For the same compound, the “Plant response rating, Windgrass” value [16, 25] was 100, the “Plant response rating, Windgrass” value ([16]; 62 g ai/ha, scale 0 to 100) was 100 and the “Plant response rating, Windgrass” value ([16]; 125 g ai/ha, scale 0 to 100) was 100.
